Test system: patients after acute myocardial infarction
Assay: Life quality, Seattle Angina Questionnaire (SAQ), same clinical trial
Format: in vivo, human
Details: 1 month after treatment
Source text: 3508 patients who were in accordance with the diagnostic standards of AMI for 28 days to 2 years and differentiated as Qi deficiency and blood stagnation syndrome by TCM were studied. 0.5 g Chinese medicine composition prepared by the method of EXAMPLE 1 (Coded as QSYQ) was administrated half an hour after meal, 3 times per day.
There were 19 questions in the Seattle angina questionnaire (SAQ), including 5 parts: physical limitation (PL), anginal stability (AS), anginal frequency (AF), treatment satisfaction (TS) and disease perception (DP). After being given necessary explanation by doctors, the questions were answered independently by patients.
They included the overall survival time, angina pectoris score, TCM symptom score and life quality score, where angina pectoris score, TCM symptom score and life quality score were evaluated at randomization, in 1st, 3rd, 6th, 9th, 12th month after treatment and 18th month after follow-up.
All evaluation results of SAQ were described during the period of observation, and Wilcoxon rank sum test was used for inter-group comparison.
The evaluation results in the SAQ were depicted in different observations, and inter-group comparison was tested by Wilcoxon Rank-sum test.

## CC(=O)Oc1ccccc1C(=O)O [Control group, aspirine]
FAS
  SAQ 2nd question: Clearly increased, % of cases: (0.92%)
  SAQ 2nd question: Clearly increased, cases: 16
  SAQ 2nd question: Clearly reduced, % of cases: (16.50%)
  SAQ 2nd question: Clearly reduced, cases: 287
  SAQ 2nd question: Same, % of cases: (49.05%)
  SAQ 2nd question: Same, cases: 853
  SAQ 2nd question: Slightly increased, % of cases: (3.05%)
  SAQ 2nd question: Slightly increased, cases: 53
  SAQ 2nd question: Slightly reduced, % of cases: (30.48%)
  SAQ 2nd question: Slightly reduced, cases: 530
  SAQ 3rd question: 1-2 times per week, % of cases: (30.48%)
  SAQ 3rd question: 1-2 times per week, cases: 530
  SAQ 3rd question: 1-3 times per day, % of cases: (3.05%)
  SAQ 3rd question: 1-3 times per day, cases: 53
  SAQ 3rd question: <1 time per week, % of cases: (16.50%)
  SAQ 3rd question: <1 time per week, cases: 287
  SAQ 3rd question: No onset, % of cases: (0.00%)
  SAQ 3rd question: No onset, cases: 0
  SAQ 3rd question: ≧3 times per week, % of cases: (49.05%)
  SAQ 3rd question: ≧3 times per week, cases: 853
  SAQ 3rd question: ≧4 times per day, % of cases: (0.92%)
  SAQ 3rd question: ≧4 times per day, cases: 16
  SAQ Question 1-3: Mildly limited, number of patients: 126
  SAQ Question 1-3: Mildly limited, percent of patients: (7.23%)
  SAQ Question 1-3: Moderately limited, number of patients: 34
  SAQ Question 1-3: Moderately limited, percent of patients: (1.95%)
  SAQ Question 1-3: Not limited, number of patients: 1261
  SAQ Question 1-3: Not limited, percent of patients: (72.39%)
  SAQ Question 1-3: Other reasons, number of patients: 9
  SAQ Question 1-3: Other reasons, percent of patients: (0.52%)
  SAQ Question 1-3: Severely limited, number of patients: 5
  SAQ Question 1-3: Severely limited, percent of patients: (0.29%)
  SAQ Question 1-3: Slightly limited, number of patients: 307
  SAQ Question 1-3: Slightly limited, percent of patients: (17.62%)
  SAQ Question 1-4: Mildly limited, number of patients: 349
  SAQ Question 1-4: Mildly limited, percent of patients: (20.05%)
  SAQ Question 1-4: Moderately limited, number of patients: 159
  SAQ Question 1-4: Moderately limited, percent of patients: (9.13%)
  SAQ Question 1-4: Not limited, number of patients: 618
  SAQ Question 1-4: Not limited, percent of patients: (35.50%)
  SAQ Question 1-4: Other reasons, number of patients: 12
  SAQ Question 1-4: Other reasons, percent of patients: (0.69%)
  SAQ Question 1-4: Severely limited, number of patients: 35
  SAQ Question 1-4: Severely limited, percent of patients: (2.01%)
  SAQ Question 1-4: Slightly limited, number of patients: 568
  SAQ Question 1-4: Slightly limited, percent of patients: (32.62%)
  SAQ Question 1-5: Mildly limited, number of patients: 315
  SAQ Question 1-5: Mildly limited, percent of patients: (18.09%)
  SAQ Question 1-5: Moderately limited, number of patients: 196
  SAQ Question 1-5: Moderately limited, percent of patients: (11.26%)
  SAQ Question 1-5: Not limited, number of patients: 648
  SAQ Question 1-5: Not limited, percent of patients: (37.22%)
  SAQ Question 1-5: Other reasons, number of patients: 10
  SAQ Question 1-5: Other reasons, percent of patients: (0.57%)
  SAQ Question 1-5: Severely limited, number of patients: 32
  SAQ Question 1-5: Severely limited, percent of patients: (1.84%)
  SAQ Question 1-5: Slightly limited, number of patients: 540
  SAQ Question 1-5: Slightly limited, percent of patients: (31.02%)
  SAQ Question 1-9: Mildly limited, % of cases: (16.68%)
  SAQ Question 1-9: Mildly limited, cases: 284
  SAQ Question 1-9: Moderately limited, % of cases: (21.02%)
  SAQ Question 1-9: Moderately limited, cases: 358
  SAQ Question 1-9: Not limited, % of cases: (2.88%)
  SAQ Question 1-9: Not limited, cases: 49
  SAQ Question 1-9: Other reasons, % of cases: (6.17%)
  SAQ Question 1-9: Other reasons, cases: 105
  SAQ Question 1-9: Severely limited, % of cases: (41.93%)
  SAQ Question 1-9: Severely limited, cases: 714
  SAQ Question 1-9: Slightly limited, % of cases: (11.33%)
  SAQ Question 1-9: Slightly limited, cases: 193
PP
  SAQ 2nd question: Clearly increased, % of cases: (0.54%)
  SAQ 2nd question: Clearly increased, cases: 8
  SAQ 2nd question: Clearly reduced, % of cases: (16.75%)
  SAQ 2nd question: Clearly reduced, cases: 248
  SAQ 2nd question: Same, % of cases: (49.63%)
  SAQ 2nd question: Same, cases: 735
  SAQ 2nd question: Slightly increased, % of cases: (2.90%)

— patent US9211310B2, “Use of a Chinese medicine composition in preparing medicaments for treating secondary prevention of myocardial infarction” (TASLY PHARMACEUTICAL GROUP CO., LTD, priority 2010, dated 2015)
